Results as given in ChEMBL document CHEMBL4376861, “Docking Finds GPCR Ligands in Dark Chemical Matter” (J Med Chem, 2020).

How the values were obtained:
Adenosine receptor A2a [1] = target: T1, Adenosine receptor A2a (Homo sapiens, UniProt P29274); assay: Displacement of [3H]ZM241385 from adenosine A2A receptor in human HeLa cell membranes at 10 uM incubated for 30 mins by scintillation counting method relative to control
[2] = target: T2, Adenosine receptor A1 (Homo sapiens) (UniProt P30542); assay: Displacement of [3H]DPCPX from human adenosine […] receptor expressed in […] cell membranes at 10 uM incubated for 60 mins by scintillation counting method relative to control
T2 sequence (whole entry): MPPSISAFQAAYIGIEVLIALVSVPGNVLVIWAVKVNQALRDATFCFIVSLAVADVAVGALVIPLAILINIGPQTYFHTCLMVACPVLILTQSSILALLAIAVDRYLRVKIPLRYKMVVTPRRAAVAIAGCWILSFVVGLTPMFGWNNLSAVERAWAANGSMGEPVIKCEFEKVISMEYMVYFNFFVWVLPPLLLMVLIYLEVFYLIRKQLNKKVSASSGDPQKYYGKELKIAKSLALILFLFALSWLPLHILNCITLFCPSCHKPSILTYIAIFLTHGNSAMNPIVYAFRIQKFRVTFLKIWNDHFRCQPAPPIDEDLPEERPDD

D(3) dopamine receptor [3] = target: T3, D(3) dopamine receptor (Homo sapiens, UniProt P35462); assay: Displacement of [3H]spiperone from human dopamine D3 receptor expressed in cell membranes incubated for 60 mins by scintillation counting method
D(4) dopamine receptor = target: T4, D(4) dopamine receptor (Homo sapiens, UniProt P21917); assay: Displacement of [3H]spiperone from human dopamine D4 receptor expressed in cell membranes incubated for 60 mins by scintillation counting method
T4 sequence (P21917 whole entry): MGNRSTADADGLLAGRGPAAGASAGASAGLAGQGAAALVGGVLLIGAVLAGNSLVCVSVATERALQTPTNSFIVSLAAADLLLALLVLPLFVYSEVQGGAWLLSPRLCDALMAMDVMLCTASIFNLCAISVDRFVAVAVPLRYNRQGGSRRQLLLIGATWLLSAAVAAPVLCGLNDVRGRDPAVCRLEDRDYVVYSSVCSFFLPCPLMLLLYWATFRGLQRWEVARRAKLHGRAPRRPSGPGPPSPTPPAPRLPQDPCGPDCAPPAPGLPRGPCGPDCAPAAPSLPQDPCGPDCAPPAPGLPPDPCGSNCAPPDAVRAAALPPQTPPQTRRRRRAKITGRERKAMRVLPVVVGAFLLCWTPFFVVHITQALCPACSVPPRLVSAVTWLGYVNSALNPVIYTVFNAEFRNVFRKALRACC

[4] = target: T5, D(4) dopamine receptor (Homo sapiens) (UniProt P21917); assay: Displacement of [3H]spiperone from human dopamine D4 receptor expressed in cell membranes at 10 uM incubated for 60 mins by scintillation counting method relative to control
T5 sequence (whole entry): T4 sequence (P21917 whole entry)

Adenosine receptor A1 = target: T6, Adenosine receptor A1 (Homo sapiens, UniProt P30542); assay: Displacement of [3H]DPCPX from human adenosine […] receptor expressed in […] cell membranes incubated for 60 mins by scintillation counting method
T6 sequence (P30542 whole entry): T2 sequence (whole entry)

D(3) dopamine receptor [5] = target: T3, D(3) dopamine receptor; assay: Displacement of [3H]spiperone from human dopamine D3 receptor expressed in cell membranes at 10 uM incubated for 60 mins by scintillation counting method
Adenosine receptor A2a [6] = target: T1, Adenosine receptor A2a; assay: Displacement of [3H]ZM241385 from adenosine A2A receptor in human HeLa cell membranes incubated for 30 mins by scintillation counting method

T3 sequence (P35462 whole entry): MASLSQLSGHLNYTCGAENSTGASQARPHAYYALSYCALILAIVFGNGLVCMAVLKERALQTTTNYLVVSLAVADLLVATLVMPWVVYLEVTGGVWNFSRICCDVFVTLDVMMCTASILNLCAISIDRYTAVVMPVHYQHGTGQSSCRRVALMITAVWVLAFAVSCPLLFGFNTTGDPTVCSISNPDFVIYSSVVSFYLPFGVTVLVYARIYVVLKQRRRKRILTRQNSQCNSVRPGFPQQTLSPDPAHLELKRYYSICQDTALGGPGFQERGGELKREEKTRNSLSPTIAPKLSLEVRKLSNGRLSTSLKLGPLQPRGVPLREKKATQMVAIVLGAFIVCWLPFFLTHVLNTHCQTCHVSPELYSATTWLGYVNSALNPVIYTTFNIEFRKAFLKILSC
T1 sequence (P29274 whole entry): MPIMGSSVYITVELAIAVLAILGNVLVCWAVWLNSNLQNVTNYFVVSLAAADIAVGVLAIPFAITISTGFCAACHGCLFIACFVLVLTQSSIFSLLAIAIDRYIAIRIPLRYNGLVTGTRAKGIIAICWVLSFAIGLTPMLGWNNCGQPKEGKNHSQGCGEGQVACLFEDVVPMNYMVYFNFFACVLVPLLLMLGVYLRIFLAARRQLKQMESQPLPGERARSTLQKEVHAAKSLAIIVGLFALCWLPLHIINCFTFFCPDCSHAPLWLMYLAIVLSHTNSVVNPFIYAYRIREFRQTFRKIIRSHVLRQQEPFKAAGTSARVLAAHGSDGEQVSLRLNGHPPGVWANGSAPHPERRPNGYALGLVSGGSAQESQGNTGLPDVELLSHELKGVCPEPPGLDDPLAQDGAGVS

inhibition (Adenosine receptor A2a [1]) [%] | inhibition [2] [%] | Ki (D(3) dopamine receptor [3]) [µM] | Ki (D(4) dopamine receptor) [nM] | inhibition [4] [%] | Ki (Adenosine receptor A1) [nM] | inhibition (D(3) dopamine receptor [5]) [%] | Ki (Adenosine receptor A2a [6]) [nM] | Structure (SMILES)
7 | 19 | 11 | 420 | – | – | – | – | Cc1ccc(C(=O)C2CCN(CC(=O)NC3CCCC3)CC2)cc1
13 | 13 | 1.6 | 550 | – | – | – | – | Cc1cccc2cc(CNCc3ccccc3)c(Cl)nc12
– | – | – | – | 7 | 36 | 4 | 130 | Nc1nc(-c2ccccc2)nn1C(=O)c1ccco1
– | – | – | – | 12 | 2200 | 6 | 4900 | CCOC(=O)c1nc(N)c(=O)n(-c2ccccc2)n1
